Target: Carbonic anhydrase 2 (Bos taurus, UniProt P00921)
Test: Carbonic Anhydrase (bCAII) Inhibition Assay
Details: pH 7.2
Procedure: This was assay performed using buffer containing Tris and HEPES at the pH of 7.2-7.9 and a total concentration of 20 mM. 96-well plates were filled with 140 µL of Tris-HEPES solution, 20 µL of bovine erythrocyte carbonic anhydrase II solution (0.1-0.2 mg/2000 mL), and 20 µL of 0.7 mM para-nitrophenyl acetate (diluted in ethanol). Test compounds were incubated at 25-28 °C for 15 min prior to addition of para-nitrophenyl acetate, which starts the reaction. The reaction was allowed to taking place for 30 min at 25-28 °C. All compounds tested in triplicate at different concentration. The amount of product that forms during thereaction monitored at 400 nm after 30 min using SPECTRA-max 340 spectrophotometer, Molecular Devices (USA).

Chain of Carbonic anhydrase 2 (P00921 whole entry): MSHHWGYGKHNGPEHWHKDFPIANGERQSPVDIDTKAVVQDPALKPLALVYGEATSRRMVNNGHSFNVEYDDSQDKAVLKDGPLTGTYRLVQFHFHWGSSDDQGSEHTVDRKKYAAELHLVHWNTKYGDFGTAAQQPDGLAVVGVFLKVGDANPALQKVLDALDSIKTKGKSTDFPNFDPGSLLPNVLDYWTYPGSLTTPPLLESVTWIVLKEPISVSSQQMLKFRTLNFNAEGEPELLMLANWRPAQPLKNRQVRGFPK

Row | SMILES | IC50 [µM]
1 | O=[N+]([O-])c1ccc(S(=O)(=O)Nc2ccc(C(c3c[nH]c4ccc(Br)cc34)c3c[nH]c4ccc(Br)cc34)cc2)cc1 [N-(4-(bis(5-bromo-1H-indol-3-yl)methyl)phenyl)-4-nitrobenzenesulfonamide (4b)] | 63.9
2 | O=[N+]([O-])c1cc(S(=O)(=O)Nc2ccc(C(c3c[nH]c4ccc(Br)cc34)c3c[nH]c4ccc(Br)cc34)cc2)ccc1Cl [N-(4-(bis(5-bromo-1H-indol-3-yl)methyl)phenyl)-4-chloro-3-nitrobenzenesulfonamide (4h)] | 83.1
3 | O=[N+]([O-])c1ccccc1S(=O)(=O)Nc1ccc(C(c2c[nH]c3ccc(Br)cc23)c2c[nH]c3ccc(Br)cc23)cc1 [N-(4-(bis(5-bromo-1H-indol-3-yl)methyl)phenyl)-2-nitrobenzenesulfonamide (4d)] | 65.2
4 | O=S(=O)(Nc1ccc(C(c2c[nH]c3ccc(Br)cc23)c2c[nH]c3ccc(Br)cc23)cc1)c1cc(Cl)cc(Cl)c1O [N-(4-(bis(5-bromo-1H-indol-3-yl)methyl)phenyl)-3,5-dichloro-2-hydroxybenzenesulfonamide (4k)] | 18.8
5 | O=S(=O)(Nc1ccc(C(c2c[nH]c3ccc(Br)cc23)c2c[nH]c3ccc(Br)cc23)cc1)c1cc(Cl)c(Cl)cc1Cl [N-(4-(bis(5-bromo-1H-indol-3-yl)methyl)phenyl)-2,4,5-trichlorobenzenesulfonamide (4f)] | 40.3
6 | Cc1ccc([N+](=O)[O-])cc1S(=O)(=O)Nc1ccc(C(c2c[nH]c3ccc(Br)cc23)c2c[nH]c3ccc(Br)cc23)cc1 [N-(4-(bis(5-bromo-1H-indol-3-yl)methyl)phenyl)-2-methyl-5-nitrobenzenesulfonamide (4i)] | 44.3
7 | O=[N+]([O-])c1ccc(S(=O)(=O)Nc2ccc(C(c3c[nH]c4ccc(Br)cc34)c3c[nH]c4ccc(Br)cc34)cc2)c([N+](=O)[O-])c1 [N-(4-(bis(5-bromo-1H-indol-3-yl)methyl)phenyl)-2,4-dinitrobenzenesulfonamide (4g)] | 28.9
8 | O=S(=O)(Nc1ccc(C(c2c[nH]c3ccccc23)c2c[nH]c3ccccc23)cc1)c1cc(Cl)cc(Cl)c1O [3,5-Dichloro-N-(4-(di(1H-indol-3-yl)methyl)phenyl)-2-hydroxybenzenesulfonamide (3k)] | 58.1

The next lines start with the values.

Row | IC50 [µM] | SMILES
9 | 90.4 | O=S(=O)(Nc1ccc(C(c2c[nH]c3ccc(Br)cc23)c2c[nH]c3ccc(Br)cc23)cc1)c1ccc2ccccc2c1 [N-(4-(bis(5-bromo-1H-indol-3-yl)methyl)phenyl)naphthalene-2-sulfonamide (4c)]
10 | 15.6 | O=[N+]([O-])c1ccc(S(=O)(=O)Nc2ccc(C(c3c[nH]c4ccc(Cl)cc34)c3c[nH]c4ccc(Cl)cc34)cc2)c([N+](=O)[O-])c1 [N-(4-(bis(5-chloro-1H-indol-3-yl)methyl)phenyl)-2,4-dinitrobenzenesulfonamide (5g)]
11 | 68.9 | O=[N+]([O-])c1cc(S(=O)(=O)Nc2ccc(C(c3c[nH]c4ccc(Cl)cc34)c3c[nH]c4ccc(Cl)cc34)cc2)ccc1Cl [N-(4-(bis(5-chloro-1H-indol-3-yl)methyl)phenyl)-4-chloro-3-nitrobenzenesulfonamide (5h)]
12 | 14.3 | Cc1ccc([N+](=O)[O-])cc1S(=O)(=O)Nc1ccc(C(c2c[nH]c3ccc(Cl)cc23)c2c[nH]c3ccc(Cl)cc23)cc1 [N-(4-(bis(5-chloro-1H-indol-3-yl)methyl)phenyl)-2-methyl-5-nitrobenzenesulfonamide (5i)]
13 | 35.9 | O=[N+]([O-])c1ccccc1S(=O)(=O)Nc1ccc(C(c2c[nH]c3ccccc23)c2c[nH]c3ccccc23)cc1 [N-(4-(di(1H-indol-3-yl)methyl)phenyl)-2-nitrobenzenesulfonamide (3d)]
14 | 16.3 | O=S(=O)(Nc1ccc(C(c2c[nH]c3ccc(Cl)cc23)c2c[nH]c3ccc(Cl)cc23)cc1)c1cc(Cl)c(Cl)cc1Cl [N-(4-(bis(5-chloro-1H-indol-3-yl)methyl)phenyl)-2,4,5-trichlorobenzenesulfonamide (5f)]
15 | 44.5 | O=[N+]([O-])c1ccccc1S(=O)(=O)Nc1ccc(C(c2c[nH]c3ccc(Cl)cc23)c2c[nH]c3ccc(Cl)cc23)cc1 [N-(4-(bis(5-chloro-1H-indol-3-yl)methyl)phenyl)-2-nitrobenzenesulfonamide (5d)]
16 | 176 | COc1ccc(Cl)cc1S(=O)(=O)Nc1ccc(C(c2c[nH]c3ccc(Cl)cc23)c2c[nH]c3ccc(Cl)cc23)cc1 [N-(4-(bis(5-chloro-1H-indol-3-yl)methyl)phenyl)-5-chloro-2-methoxybenzene sulfonamide (5e)]
17 | 45.5 | O=S(=O)(Nc1ccc(C(c2c[nH]c3ccc(Cl)cc23)c2c[nH]c3ccc(Cl)cc23)cc1)c1ccc(Cl)cc1 [N-(4-(bis(5-chloro-1H-indol-3-yl)methyl)phenyl)-4-chlorobenzenesulfonamide (5l)]
18 | 20.2 | O=S(=O)(Nc1ccc(C(c2c[nH]c3ccc(Cl)cc23)c2c[nH]c3ccc(Cl)cc23)cc1)c1cc(Cl)cc(Cl)c1O [N-(4-(bis(5-chloro-1H-indol-3-yl)methyl)phenyl)-3,5-dichloro-2-hydroxybenzenesulfonamide (5k)]
